The values that follow come from US6599529B1, “Modified release multiple-units compositions of non-steroid anti-inflammatory drug substances (NSAIDs)” (Nycomed Danmark A/S, priority 1997, dated 2003).

Molecules are shown by their SMILES.

For data set [1] the following is noted: in water and 0.1 N HCl at room temperature; cited from earlier work.
For data set [2] the following is noted: cited from earlier work.
Data set [3] can be described thus: Solubility in 0.1 N HCl / water. In kind it is physicochemical.

Regarding `CC(=O)Oc1ccccc1C(=O)O` [acetylsalicylic acid], the “solubility (in words)” value in data set [1] was “practically insoluble”.

In the case of `CN1C(C(=O)Nc2ccccn2)=C(O)c2sc(Cl)cc2S1(=O)=O` [lornoxicam], the pKa value entry in data set [2] was “about 4.7”. The solubility entry in data set [3] (at a pH corresponding to 0.1 N HCl, room temperature) is listed as “less than 1 mg/100 ml”; in data set [3] (in 0.1 N HCl (aqueous solution of 0.1 N hydrochloric acid)), under 1 mg/100 ml.

`COc1ccc2c(c1)c(CC(=O)O)c(C)n2C(=O)c1ccc(Cl)cc1` [indometacin]: the “solubility (in words)” value in data set [1] is “practically insoluble”.
